# Measured values reported in patent US12516043B2, “Stiripentol derivative and use thereof” (National University Corporation Okayama University, priority 2020, dated 2026).
# Key:
# [1] = Pharmacokinetic evaluation by oral administration to a mouse (HPLC/MS of blood plasma); assay type: in vivo, ICR mice; conditions: 50 mg/kg oral, blood plasma thirty minutes later; for in vivo metabolic stability: HPLC (MS for No. 1)
# Experimental: Pharmacokinetic evaluation (compounds Nos. 1, 2, 4 and 9, FIGS. 6 to 10) by oral administration to a mouse:
# For pharmacokinetic study, 6-7 week-old ICR mice were used in experiments. […] A vehicle or each of the compounds (50 mg/kg) were respectively orally administered to a mouse by a disposable sonde. Thirty minutes later, each mouse was decapitated for sampling their blood. Heparin sodium (10 μg/mL) was added to the blood as an anticoagulant. After each blood sample was centrifuged for 15 minutes (1,000 g, 4° C.), the supernatant was obtained as a blood plasma. Subsequently, to extract a compound, ethyl acetate was added to the obtained blood plasma, air-dried with nitrogen gas, and dissolved again with acetonitrile. The sample pretreated in this manner was subjected to the following analysis (HPLC, MS). In performing the HPLC analysis, constituents of the blood plasma were separated by the HPLC system (manufactured by JASCO Corporation) using a C18 reverse-phase column, at a flow rate of 1.0 mL/min. For analysis of the compound No. 1, a mobile phase consisting of acetonitrile (80%) and water (20%) was used, whereas a mobile phase consisting of acetonitrile (70%) and water (30%) was used for analysis of Compounds No. 2, No. 4 and No. 9. Individual compounds were detected by a UV detector at 295 nm. The data were obtained/analyzed by a software, ChromNAV (manufactured by JASCO Corporation). To identify an unchanged compound within the blood plasma constituents, the compound itself was directly analyzed as a standard substance by HPLC and the retention times of these compounds were compared. In the MS analysis, LC-MS/MS system (Agilent 1200 HPLC-Chip and 6520 Accurate-Mass Q-TOF), manufactured by Agilent Technologies, was used. The pretreated sample was allowed to adsorb onto a C18 chip by use of a mobile phase consisting of acetonitrile (25%) and water (75%) containing formic acid (0.1%), and thereafter, the blood plasma constituents were separated by a mobile phase consisting of acetonitrile (60%) and water (40%) containing formic acid (0.1%). The MS spectrum of the blood plasma constituents separated was detected (obtained) by a mass spectrometer, and data was obtained/analyzed by a software, MassHunter Qualitative Analysis (Agilent Technologies).
# [2] = Solubility in lipid (choice of vehicle); assay type: physicochemical
# [3] = biological target: human LDH1 (tetramer of LDHB) (Homo sapiens, UniProt P07195); experiment: Lactate dehydrogenase inhibitory action, enzymatic reaction plus chromogenic reaction (LDH1); assay type: biochemical; conditions: FIG. 1B, each n=3
# Experimental: (§1) Evaluation of Lactate Dehydrogenase Inhibitory Action (Compounds Nos. 1 to 10, FIGS. 1 to 5):
# (§2) Lactate dehydrogenase catalyzes production of lactic acid and NAD from pyruvic acid and NADH. […] In order to evaluate the enzymatic activity of lactate dehydrogenase, experiments were carried out using an evaluation system (Patent Literature 1, Non-Patent Literature 9) consisting of an enzymatic reaction (step 1) and a chromogenic reaction (step 2). In the enzymatic reaction of step 1, sodium pyruvate (100 μM), NADH (100 μM) and lactate dehydrogenase (human LDH1 or LDH5) were added, further an inhibitor (Compounds Nos. 1 to 10) different in concentration was added. The mixture was subjected to a reaction carried out in the presence of a 100 mM sodium phosphate buffer (pH 7.3, 37° C.) for 60 minutes (200 μL/well). In this stage, absorbance of the background at 492 nm was measured by a plate reader (absorbance before chromogenic reaction). […] INT changed into INT formazan by the action of diaphorase in the presence of NADH, and absorbance of INT formazan at 492 nm was measured by a plate reader (absorbance after chromogenic reaction). […] Then, the absorbance before chromogenic reaction was subtracted from the absorbance after chromogenic reaction. The value obtained by the above calculation was regarded as an “absorbance change value (ΔA)”. […]
# [4] = biological target: human LDH5 (tetramer of LDHA) (Homo sapiens, UniProt P00338); experiment: Lactate dehydrogenase inhibitory action, enzymatic reaction plus chromogenic reaction (LDH5); assay type: biochemical; conditions: FIG. 1A
# Experimental: as §1, §2
# [5] = test system: epileptic seizures in hippocampal sclerosis model mouse; experiment: Pharmacological effect evaluation using a hippocampal sclerosis model mouse; assay type: in vivo, ICR mice
# Experimental: Pharmacological Effect Evaluation by Using a Hippocampal Sclerosis Model Mouse (Compound No. 2, FIG. 11):
# Hippocampal sclerosis model mice for use in evaluating anti-epileptic action were prepared according to the literatures already published (Non-Patent Literatures 3 and 13). First, 6-7 week-old ICR mice were each anesthetized with a mixed solution of ketamine (100 mg/kg) and xylazine (40 mg/kg) and fixed to a stereotaxic apparatus. Subsequently, the scalp was removed and a U-shaped plastic frame required for recording electroencephalography in vivo was attached to the head. Then, a small amount of kainic acid (0.8 nmol, 40 nL) for inducing epilepsy was injected to the dorsal hippocampus (1.6 mm posterior to the bregma, 1.6 mm laterally from the center line, 1.4 mm (depth) from the brain surface) via a micro glass electrode and a metal electrode (diameter 200 μm) for measuring epileptic seizures was embedded in the proximity of the injection site of kainic acid. A reference electrode was installed in the cerebellum. Three weeks after the surgery, epileptic seizures spontaneously generated from the hippocampus were measured to evaluate anti-epilepsy action. Each mouse head was immobilized via a U-shaped frame, brain waves of the hippocampus was recorded through an analog filter of 0.5-30 Hz and digitized by an AD converter at a sampling rate of 1 kHz. After baseline brain wave was measured for one hour, a vehicle or Compound No. 2 was orally administered to each mouse by a disposable sonde, and their brain waves were recorded for further 3 hours. Epileptic seizures were analyzed by Igor Pro (WaveMetrics) and epileptic seizures lasting for 8 seconds or more were counted. Statistical analysis was carried out by SigmaPlot (Systat Software).
# [6] = test system: lactate dehydrogenase; conditions: Non-Patent Literature 3; cited from earlier work
# human LDH1 (tetramer of LDHB), sequence (P07195 whole entry): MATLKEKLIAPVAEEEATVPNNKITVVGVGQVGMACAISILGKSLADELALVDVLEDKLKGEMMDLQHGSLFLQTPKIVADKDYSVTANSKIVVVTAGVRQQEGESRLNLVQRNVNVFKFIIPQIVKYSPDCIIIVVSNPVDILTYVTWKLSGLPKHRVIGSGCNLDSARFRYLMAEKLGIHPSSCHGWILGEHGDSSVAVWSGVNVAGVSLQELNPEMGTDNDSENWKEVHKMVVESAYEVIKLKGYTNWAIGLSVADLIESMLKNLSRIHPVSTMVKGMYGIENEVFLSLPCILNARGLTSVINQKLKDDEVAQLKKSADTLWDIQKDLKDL
SMILES,unchanged compound in the blood after oral administration [1],in vivo metabolic stability [1],solubility in lipid [2],concentration at which inhibitory activity against LDHA was exerted ([4]; n=3) [µM],inhibitory activity against LDHB (in words) [3],"epileptic seizure in the hippocampus ([5]; 150 mg/kg oral, 2.5 hours after administration, FIG. 11B)","number of seizures, dose dependency versus vehicle ([5]; dose of 50 mg/kg oral, 2-3 hours after administration, FIG. 11D, n=11)","number of spontaneous epileptic seizures per hour versus baseline ([5]; oral, one hour after the administration, FIG. 11C, n=10)","inhibitory activity against LDHA (in words) ([4]; n=3, compared with compound No. 1 (5 μM))",inhibitory action against lactate dehydrogenase [6]
"O=C(/C=C/c1ccc2c(c1)OCO2)c1ccc(-c2ccccc2)cc1 [Compound No. 1, reference compound]",quickly disappears,low,highly soluble in lipid,5,almost the same strong inhibitory activity,,,,,
OC(/C=C/c1ccc2c(c1)OCO2)c1ccc(-c2ccccc2)cc1 (centres unmarked) [Compound No. 2],maintained,high,highly soluble in lipid,,almost the same strong inhibitory activity,suppressed,significantly decreases,significant decrease,exert an inhibitory activity at the same concentration,
CC(C)(C)C(O)/C=C/c1ccc2c(c1)OCO2 (centres unmarked) [stiripentol],,,,,,,,,,weak

# Second part, led by results:
unchanged compound in the blood after oral administration [1],in vivo metabolic stability [1],solubility in lipid [2],concentration at which inhibitory activity against LDHA was exerted ([4]; n=3) [µM],SMILES,inhibitory activity against LDHB (in words) [3],"epileptic seizure in the hippocampus ([5]; 150 mg/kg oral, 2.5 hours after administration, FIG. 11B)","number of seizures, dose dependency versus vehicle ([5]; dose of 50 mg/kg oral, 2-3 hours after administration, FIG. 11D, n=11)","number of spontaneous epileptic seizures per hour versus baseline ([5]; oral, one hour after the administration, FIG. 11C, n=10)","inhibitory activity against LDHA (in words) ([4]; n=3, compared with compound No. 1 (5 μM))",inhibitory action against lactate dehydrogenase [6]
maintained,high,highly soluble in lipid,,OC(/C=C/c1ccc2c(c1)OCO2)c1ccc(-c2ccccc2)cc1F (centres unmarked) [Compound No. 9],,,,,,
maintained,high,highly soluble in lipid,,OC(/C=C/c1ccc2c(c1)OCO2)c1ccc(-c2ccc(F)cc2)cc1 (centres unmarked) [Compound No. 4],,,,,,
